From US11707474B2, “Methods for treating acute myeloid leukemia and related conditions” (GlycoMimetics, Inc., priority 2018, dated 2023)

What was measured:
[1] = Radiation induced mucositis assay; type: in vivo, Mice (C57bl/6); conditions: 8.0 Gy whole body irradiation; 20 mg/kg IP BID 6 days
Method: Mice (C57bl/6) were subjected to whole body irradiation (8.0 Gy) and immediately afterwards treated with a compound of Formula (I) (20 mg/kg in saline, IP, BID (i.e. 40 mg/kg per day)) or saline alone (0.15 M NaCl) for 6 days. The small intestine was removed at day 6 and digested to release cells. The number of CD11b^+F4/80^+ macrophages from the small intestine was determined by flow cytometry (FIG. 2).

[2] = tested on: MLL-AF9-induced AML leukemia; experiment: Syngeneic MLL-AF9 induced AML leukemia survival model; type: in vivo, mice; conditions: 40 mg/kg BID 10 days with cytarabine/DOX
Method: The impact of a compound of Formula (I) when administered adjunctively with cytarabine/DOX chemotherapy was evaluated in the syngeneic MLL-AF9 induced AML leukemia model.
Bone marrow from mice bearing MLL-AF9-inducted leukemia was harvested and enriched for kit+ cells and frozen in aliquots for subsequent transplant. Recipient mice were then injected with 3×10^4 leukemic cells 2 days after conditioning (Study day 0). Six days after leukemic injection, mice were randomized into 3 groups (n=8/group): a group administered a compound of Formula (I) at 40 mg/kg BID (i.e. 80 mg/kg per day) for 10 days, a group administered cytarabine/DOX (cytarabine at 100 mg/kg QD for 5 days, DOX at 1 mg/kg QD for 2 days), and a group administered a combined regimen of cytarabine/DOX/compound of Formula (I).

[3] = tested on: relapsed/refractory type acute myeloid leukemia (AML); experiment: Phase 1 clinical outcomes, relapsed/refractory AML, sodium salt infusion with MEC; type: in vivo; conditions: R/R AML
Method: Three cohorts of 6-7 human subjects with relapsed/refractory type acute myeloid leukemia (AML) each received a total of 15 infusions of 5, 10, or 20 mg/kg/dose of the compound of Formula (I), administered as the sodium salt, over 8 days with a nominal infusion duration of 20 minutes. The nominal infusion duration of 20 minutes was constant across cohorts (e.g., a slower infusion rate was used for the administration of the 5 mg/kg/dose arm than for the 10 mg/kg/dose arm). The formulation for the infusion solution was as follows: […]
(§1) The first dose of a compound of Formula (I) was administered 24 hours±1 hour prior to the first dose of MEC (mitoxantrone, etoposide, and cytarabine) induction chemotherapy as a sentinel dose to evaluate the effect of the compound of Formula (I) alone (i.e., a single dose of 5, 10, or 20 mg/kg the day before the first chemotherapy day). The compound of Formula (I) was then administered every 12 hours±1 hour on chemotherapy days, starting 2 hours prior to chemotherapy (i.e., 10, 20, or 40 mg/kg per day on chemotherapy days). […] MEC chemotherapy was administered on Days 2-6.
(§2) The clinical outcome for each subject was assessed at the time of count recovery following completion of induction chemotherapy. Subjects were assigned to one of four response groups: complete remission (“CR”); complete remission with incomplete count recovery (“CRi”); morphologic leukemia-free state (“MLFS”); persistent disease (“PD”). Complete remission was defined as bone marrow blasts <5%; absence of circulating blasts and blasts with Auer rods; absence of extramedullary disease; ANC ≥1.0×10^9/L and platelets ≥100,000×10^9/L. Complete remission with incomplete recovery was defined as: all CR criteria except for residual neutropenia (<1.0×10^9/L) or thrombocytopenia (<100,000×10^9/L). Morphologic leukemia-free state was defined as: bone marrow blasts <5%; absence of blasts with Auer rods; absence of extramedullary disease; no hematologic recovery required. Persistent disease was defined as: bone marrow blasts >5%.

[4] = tested on: relapsed/refractory (R/R) acute myeloid leukemia (AML); experiment: Phase 2 clinical outcomes, relapsed/refractory AML, sodium salt infusion with MEC; type: in vivo, human
Method: In this Phase 2 study related to the Phase 1 study described above (see Example 13), 47 additional subjects were administered the RP2D dose of 10 mg/kg/dose. The data of the 19 subjects in the 10 mg/kg/dose arm of the Phase 1 study was added to the data of these 47 additional subjects, resulting in data for 66 human subjects being considered in the Phase 2 study.
In detail, consistent with the Phase 1 study protocols, a total of 66 human subjects with relapsed/refractory (R/R) acute myeloid leukemia (AML) were selected for this study (i.e., the 19 subjects from the 10 mg/kg/dose arm of the Phase 1 study plus 47 additional subjects).
Whether as part of the Phase 1 study (for 19 of the subjects) or as an additional subject for the Phase 2 study, each subject received a total of 15 infusions of the RP2D dose of 10 mg/kg/dose of the compound of Formula (I), administered as the sodium salt, over 8 days with a nominal infusion duration of 20 minutes (either as part of the Phase 1 study for 19 subjects or as a new Phase 2). The formulation for the infusion solution was as follows: […]
as §1, with “10” for “5, 10, or 20”, “20” for “10, 20, or 40”
as §2
Outcomes shown below provide data for Phase 1 (Example 13, all cohorts combined), Phase 2, and Total (Phase 1 and Phase 2) subject populations.

CC[C@@H]1CC(C(=O)NCCNC(=O)CCOCCOCCOCCOCCOCCOCCOCCOCCOCCOCCOCCOC)C[C@@H](O[C@@H]2O[C@@H](CO)[C@H](O)C(O[C@@H](CC3CCCCC3)C(=O)O)C2NC(C)=O)C1OC1O[C@@H](C)C(O)[C@H](O)[C@@H]1O (stereo partly drawn) [compound of Formula (I)]
CD11b+F4/80+ macrophages in small intestine [1]: decreased migration of inflammatory macrophages to the intestines | MST [2]: 41 days | increased lifespan [2]: 64% | CR with incomplete recovery (CRi) ([3]; 10 mg/kg/dose): 0 n | Morphologic Leukemia-Free State (MLFS) ([3]; 10 mg/kg/dose): 0 n | CR with incomplete recovery (CRi) ([3]; 20 mg/kg/dose): 0 n | Morphologic Leukemia-Free State (MLFS) ([3]; 20 mg/kg/dose): 0 n | All-Cause Mortality 30 days ([3]; Phase 1): 0 n | CR/CRi Rate: Cytogenetics (SWOG) Favorable risk ([3]; Phase 1): 0 n | CR/CRi Rate: FLT3-ITD mutated ([3]; Phase 1): 0 n | CR/CRi Rate: Relapsed ≥12-<24 months ([3]; Phase 1): 0 n | Partial Remission (PR) ([3]; Phase 1): 0 n | CR Rate: Cytogenetics Favorable risk ([3]; Phase 1 subgroup): 0 n | response rate (CR/CRi) ([4]; after a single course of induction treatment with MEC): over 40% | severe oral mucositis rate ([4]; with MEC): 2-3% | one-year survival rate, MRD negative subjects ([4]; with MEC, RP2D 10 mg/kg/dose): 73% | one-year survival rate, all subjects ([4]; with MEC, RP2D 10 mg/kg/dose): 35% | median overall survival ([4]; with MEC, RP2D 10 mg/kg/dose, 95% CI 5.7-11.4): 8.8 months
